In PubChem BioAssay AID2060897 (Molecular Pharmacology Branch, DTP, NCI, 2025):

Test system: 966289-007-R4-J1-PDC complex spheroid viability
Test: Anticancer human tumor 966289-007-R4-J1-PDC patient-derived pancreatic adenocarcinoma cell line growth inhibition [RAS]
Details: for viability, T/C: stronger effect = lower value
Summary of the method: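 Agents were tested in combination matrices in half-log decrements from a top concentration at or near clinical Cmax (10 microM if undetermined). Targets were multi-cell spheroids of tumour lines plus HUVEC and MSC stromal cells.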
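Also: spheroids exposed to agents for one week before readout.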
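For viability, T/C in this document: percent viability relative to DMSO vehicle control wells as 100%.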

CC(C)NCC(C(=O)N1CCN(c2ncnc3c2C(C)CC3O)CC1)c1ccc(Cl)cc1 (stereo not given)
viability, T/C (compound 0.0316 µM): 105% [middle of 4 runs] | viability, T/C (compound 0.316 µM): 115% [middle of 4 runs] | viability, T/C (compound 1 µM): 105% [middle of 4 runs] | viability, T/C (compound 3.16 µM): 64% [middle of 4 runs] | viability, T/C (compound 10 µM): 34.2% [middle of 4 runs] | IC50 (curve of compound): 5.43 µM [middle of 4 runs]

CC(C)NCC(C(=O)N1CCN(c2ncnc3c2C(C)CC3O)CC1)c1ccc(Cl)cc1 (stereo not given) + CCn1c(-c2cc(N3CCN(C)CC3)cnc2C(C)OC)c2c3cc(ccc31)-c1csc(n1)CC(NC(=O)C1CC1C)C(=O)N1CCCC(N1)C(=O)OCC(C)(C)C2
IC50 (curve of first compound, second compound 0.000949 µM): 5.85 µM | IC50 (curve of first compound, second compound 0.003 µM): 4.53 µM | IC50 (curve of first compound, second compound 0.00949 µM): 5.06 µM | IC50 (curve of first compound, second compound 0.03 µM): 4.79 µM | IC50 (curve of first compound, second compound 0.0949 µM): 2.99 µM | IC50 (curve of first compound, second compound 0.3 µM): 4.07 µM | viability, T/C (second compound 0.000949 µM, first compound 0.0316 µM): 115% | viability, T/C (second compound 0.000949 µM, first compound 0.1 µM): 76.5% | viability, T/C (second compound 0.000949 µM, first compound 0.316 µM): 119% | viability, T/C (second compound 0.000949 µM, first compound 1 µM): 83.1% | viability, T/C (second compound 0.000949 µM, first compound 3.16 µM): 68.4% | viability, T/C (second compound 0.000949 µM, first compound 10 µM): 35.2% | viability, T/C (second compound 0.003 µM, first compound 0.0316 µM): 106% | viability, T/C (second compound 0.003 µM, first compound 0.1 µM): 92.5% | viability, T/C (second compound 0.003 µM, first compound 0.316 µM): 91.8% | viability, T/C (second compound 0.003 µM, first compound 1 µM): 95.3% | viability, T/C (second compound 0.003 µM, first compound 3.16 µM): 58.1% | viability, T/C (second compound 0.003 µM, first compound 10 µM): 32.2% | viability, T/C (second compound 0.00949 µM, first compound 0.0316 µM): 85.5% | viability, T/C (second compound 0.00949 µM, first compound 0.1 µM): 98.6% | viability, T/C (second compound 0.00949 µM, first compound 0.316 µM): 103% | viability, T/C (second compound 0.00949 µM, first compound 1 µM): 97.2% | viability, T/C (second compound 0.00949 µM, first compound 3.16 µM): 61.3% | viability, T/C (second compound 0.00949 µM, first compound 10 µM): 33.6% | viability, T/C (second compound 0.03 µM, first compound 0.0316 µM): 75.1% | viability, T/C (second compound 0.03 µM, first compound 0.1 µM): 97.4% | viability, T/C (second compound 0.03 µM, first compound 0.316 µM): 99.2% | viability, T/C (second compound 0.03 µM, first compound 1 µM): 97.6% | viability, T/C (second compound 0.03 µM, first compound 3.16 µM): 61.6% | viability, T/C (second compound 0.03 µM, first compound 10 µM): 29.4% | viability, T/C (second compound 0.0949 µM, first compound 0.0316 µM): 77.1% | viability, T/C (second compound 0.0949 µM, first compound 0.1 µM): 90.7% | viability, T/C (second compound 0.0949 µM, first compound 0.316 µM): 113% | viability, T/C (second compound 0.0949 µM, first compound 1 µM): 92.7% | viability, T/C (second compound 0.0949 µM, first compound 3.16 µM): 47.9% | viability, T/C (second compound 0.0949 µM, first compound 10 µM): 27.3% | viability, T/C (second compound 0.3 µM, first compound 0.0316 µM): 83.7% | viability, T/C (second compound 0.3 µM, first compound 0.1 µM): 102% | viability, T/C (second compound 0.3 µM, first compound 0.316 µM): 112% | viability, T/C (second compound 0.3 µM, first compound 1 µM): 98.3% | viability, T/C (second compound 0.3 µM, first compound 3.16 µM): 57.4% | viability, T/C (second compound 0.3 µM, first compound 10 µM): 23.8%

C[C@@H](NC(=O)c1ncnc(N)c1Cl)c1ncc(C(=O)Nc2cc(C(F)(F)F)c(Cl)cn2)s1 + C#Cc1c(F)ccc2cc(O)cc(-c3ncc4c(N5CC6CCC(C5)N6)nc(OCC56CCCN5CC(F)C6)nc4c3F)c12
IC50 (curve of first compound, second compound 0.0316 µM): > 10 µM | IC50 (curve of first compound, second compound 0.1 µM): > 10 µM | IC50 (curve of first compound, second compound 0.316 µM): > 10 µM | IC50 (curve of first compound, second compound 1 µM): > 10 µM | IC50 (curve of first compound, second compound 3.16 µM): > 10 µM | IC50 (curve of first compound, second compound 10 µM): > 10 µM | viability, T/C (second compound 0.0316 µM, first compound 0.0316 µM): 109% | viability, T/C (second compound 0.0316 µM, first compound 0.1 µM): 118% | viability, T/C (second compound 0.0316 µM, first compound 0.316 µM): 130% | viability, T/C (second compound 0.0316 µM, first compound 1 µM): 119% | viability, T/C (second compound 0.0316 µM, first compound 3.16 µM): 117% | viability, T/C (second compound 0.0316 µM, first compound 10 µM): 86.8% | viability, T/C (second compound 0.1 µM, first compound 0.0316 µM): 111% | viability, T/C (second compound 0.1 µM, first compound 0.1 µM): 114% | viability, T/C (second compound 0.1 µM, first compound 0.316 µM): 103% | viability, T/C (second compound 0.1 µM, first compound 1 µM): 106% | viability, T/C (second compound 0.1 µM, first compound 3.16 µM): 109% | viability, T/C (second compound 0.1 µM, first compound 10 µM): 95.7% | viability, T/C (second compound 0.316 µM, first compound 0.0316 µM): 105% | viability, T/C (second compound 0.316 µM, first compound 0.1 µM): 126% | viability, T/C (second compound 0.316 µM, first compound 0.316 µM): 124% | viability, T/C (second compound 0.316 µM, first compound 1 µM): 111% | viability, T/C (second compound 0.316 µM, first compound 3.16 µM): 112% | viability, T/C (second compound 0.316 µM, first compound 10 µM): 75.7% | viability, T/C (second compound 1 µM, first compound 0.0316 µM): 105% | viability, T/C (second compound 1 µM, first compound 0.1 µM): 123% | viability, T/C (second compound 1 µM, first compound 0.316 µM): 134% | viability, T/C (second compound 1 µM, first compound 1 µM): 130% | viability, T/C (second compound 1 µM, first compound 3.16 µM): 130% | viability, T/C (second compound 1 µM, first compound 10 µM): 87.6% | viability, T/C (second compound 3.16 µM, first compound 0.0316 µM): 119% | viability, T/C (second compound 3.16 µM, first compound 0.1 µM): 110% | viability, T/C (second compound 3.16 µM, first compound 0.316 µM): 118% | viability, T/C (second compound 3.16 µM, first compound 1 µM): 122% | viability, T/C (second compound 3.16 µM, first compound 3.16 µM): 123% | viability, T/C (second compound 3.16 µM, first compound 10 µM): 86% | viability, T/C (second compound 10 µM, first compound 0.0316 µM): 107% | viability, T/C (second compound 10 µM, first compound 0.1 µM): 108% | viability, T/C (second compound 10 µM, first compound 0.316 µM): 134% | viability, T/C (second compound 10 µM, first compound 1 µM): 125% | viability, T/C (second compound 10 µM, first compound 3.16 µM): 124% | viability, T/C (second compound 10 µM, first compound 10 µM): 91.3%
